# Laboratory results published in publication PMC6934184, “Selective DNA-PKcs inhibition extends the therapeutic index of localized radiotherapy and chemotherapy” (The Journal of Clinical Investigation, 2019).
# Molecular target: T1, KIT N822K (Homo sapiens, UniProt P10721, N822K)
# T1 construct: purchased Thermo Fisher Scientific (Life Technologies) SelectScreen
# Assay: SelectScreen LanthaScreen
# Type: binding
# Details: read-out: % displacement
# Method: The in vitro kinase selectivity of NU5455 was determined using the SelectScreen Broad Assay Panel (Thermo Fisher Scientific) involving activity and binding assays (Supplemental Table 1). […] Class IA PI3Ks were measured using the p85α subunit.
# Kinase [ATP] % Assay Kinase [ATP] % Assay Kinase [ATP] % Assay Kinase [ATP] % Assay […]
# FLT3 Km app 9.1 Z HIPK1 (Myak) Km app 2.8 Z KIT N822K n/a -0.2 L EPHB4 Km app -5.3 Z […]
# SGK (SGK1) Km app 8.5 Z MAP4K2 (GCK) Km app 2.7 Z TLK2 n/a -0.3 L STK38 (NDR) n/a -5.9 L
# MERTK (cMER) Km app 8.3 Z CDK2/cyclin A Km app 2.7 Z TGFBR1 (ALK5) n/a -0.4 L MATK (HYL) Km app -6.3 Z
# FYN Km app 8.3 Z EPHA1 Km app 2.7 Z CLK3 Km app -0.5 Z ABL1 E255K Km app -6.6 Z
# TEC n/a 8.1 L CDK2/cyclin E1 n/a 2.7 L MAP3K14 (NIK) n/a -0.5 L STK17A (DRAK1) n/a -6.6 L
# KIT V654A n/a 8.1 L TESK2 n/a 2.7 L AKT3 (PKB gamma) Km app -0.5 Z JAK2 JH1 JH2 Km app -6.7 Z
# ROS1 Km app 8.0 Z SPHK1 Km app 2.7 A MAP3K9 (MLK1) Km app -0.5 Z PRKACB (PRKAC beta) n/a -6.8 L
# FGFR3 K650E Km app 7.9 Z AMPK A2/B1/G1 Km app 2.6 Z IKBKB (IKK beta) Km app -0.6 Z PDGFRA (PDGFR alpha) Km app -6.8 Z
# RAF1 (cRAF) Y340D Y341D 100 7.9 Z DYRK3 Km app 2.6 Z CAMK2A (CaMKII alpha) Km app -0.6 Z NEK9 Km app -7.2 Z
# PI4KA (PI4K alpha) 10 7.8 A CSNK1D (CK1 delta) Km app 2.6 Z PRKCB1 (PKC beta I) Km app -0.7 Z PDK1 Km app -7.3 Z
# HIPK2 Km app 7.8 Z ACVR2A n/a 2.5 L TTK n/a -0.7 L RPS6KB1 (p70S6K) Km app -7.8 Z […]
# T1 sequence (P10721 26-976 N822K): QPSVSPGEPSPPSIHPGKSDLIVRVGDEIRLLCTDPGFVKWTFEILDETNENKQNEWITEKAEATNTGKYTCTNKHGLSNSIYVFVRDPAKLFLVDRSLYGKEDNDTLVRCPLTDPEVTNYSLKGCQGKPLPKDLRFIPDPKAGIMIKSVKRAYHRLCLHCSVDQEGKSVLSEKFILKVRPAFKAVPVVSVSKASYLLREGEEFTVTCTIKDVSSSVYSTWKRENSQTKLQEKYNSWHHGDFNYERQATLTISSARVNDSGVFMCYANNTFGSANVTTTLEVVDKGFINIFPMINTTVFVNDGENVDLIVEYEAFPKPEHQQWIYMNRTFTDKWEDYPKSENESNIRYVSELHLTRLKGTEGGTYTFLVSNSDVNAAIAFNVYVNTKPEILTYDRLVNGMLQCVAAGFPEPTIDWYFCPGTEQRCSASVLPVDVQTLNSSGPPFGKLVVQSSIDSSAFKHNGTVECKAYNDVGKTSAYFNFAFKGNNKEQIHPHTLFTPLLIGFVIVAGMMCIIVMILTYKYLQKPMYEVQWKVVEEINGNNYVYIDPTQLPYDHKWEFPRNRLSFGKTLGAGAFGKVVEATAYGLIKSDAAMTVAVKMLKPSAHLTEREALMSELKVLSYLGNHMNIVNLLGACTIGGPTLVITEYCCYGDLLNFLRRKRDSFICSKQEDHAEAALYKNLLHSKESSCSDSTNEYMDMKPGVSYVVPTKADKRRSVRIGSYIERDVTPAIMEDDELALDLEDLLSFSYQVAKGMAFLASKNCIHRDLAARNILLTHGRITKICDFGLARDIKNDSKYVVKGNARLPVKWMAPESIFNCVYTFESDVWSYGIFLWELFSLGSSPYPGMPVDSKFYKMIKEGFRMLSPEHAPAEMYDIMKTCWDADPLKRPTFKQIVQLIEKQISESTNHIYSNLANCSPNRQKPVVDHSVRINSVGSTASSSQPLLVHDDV
structure (smiles),measurement,value
CN(C(=O)CN1CCOCC1)c1ccc2sc3c(-c4cccc5c(=O)cc(N6CC7CCC(C6)O7)oc45)cccc3c2c1 [NU5455],inhibition at 1 µM,-0.2%
